{"source": "patent US20240209014A1", "about": "“NOVEL SPINOSYN PRODRUGS” (Acies Bio d.o.o., priority 2021, published 2024)", "key": {"Kinetic solubility assay": {"experiment": "Kinetic solubility assay", "format": "physicochemical", "details": "dose conc 200 μM, 25±2° C.", "description": "Solubility of the compounds of the invention was assessed using kinetic solubility assay and compared to solubility of butenyl spinosyn. Stock solutions of spinosyn compounds were prepared in DMSO at mM concentration). 10 uL of the stock solutions were added into 490 of in K.S. 5.4 buffer of pH 5.4 (80 mM phosphoric acid, acetic acid, boric acid buffer, adjusted the pH to pH 5.4 with 1 N HCl and 1N NaOH) or K.S. 7.4 buffer with pH of 7.4 (80 mM phosphoric acid, acetic acid, boric acid buffer, adjusted the pH to pH 7.4 with 1 N HCl and 1N NaOH). The solutions were incubated with shaking at room […] temperature (25±2° C.) for 24 hours. 200 uL of each solution were then transferred into a new MultiScreen filter plate (Membrane of polycarbonate) and filtered by millipore vacuum manifold, and the filtrate was collected. The concentrtions of tested compounds in the filtered samples were analyzed by HPLC analysis calibrated by a standard curve generated by injection of 3 standard solutions of the relevant compound with concentrations of 1, 20, 200 μM."}, "[1]": {"test_system": "honey bees (Apis melifera carnica, Pollman 1879)", "experiment": "Single dose acute oral toxicity test on adult worker honey bees", "format": "in vivo", "description": "Toxicity of the compounds of this invention towards honey bees (Apis melifera carnica, Pollman 1879) was assessed in comparison with commercially available samples of spinosad (LGC (Dr. Ehrenstorfer); Product code: DRE-C16972830) and the naturally produced compound butenyl spinosyn alpha 1. Solutions of spinosyn compounds were prepared in 100 mM ammonium acetate, pH=5, and later diluted in 50% (500 g/L) sucrose solution in water to final concentrations. Two final concentrations were used for each compound, 7.76 μmol/L and 15.53 μmol/L.\nSingle dose acute oral toxicity tests were conducted on adult worker bees according to previously described standard methods (Medrzycki at el., (2013)). Each compound and condition were tested in two parallels. Briefly, each parallel experiment consisted of 5 cages with 20 honey bees per cage. […] After uptake of the solutions honey bees were supplied with standard 50% sucrose solution and observed at 24 h and 48 h and the number of dead and live bees was estimated.\nAmmonium acetate solution with pH 5 was used as the negative control."}, "[2]": {"experiment": "Stability of J1A, J1B and J7 at different pH values (LC-MS)", "format": "physicochemical", "description": "Stability of compounds J1A, J1B and J7 was evaluated at different pH values. Differential stability/conversion to the active ingredient is expected to result in condition-specific activation and thereby to higher specificity towards target pests.\nStock solutions of the compounds were prepared at concentration of 0.1 mol/L. 10 μL of the stock solutions were transferred to 0.75 ml of the buffer solutions with pH values of 4, 5, 9 and 11. The resulting solutions were incubated for 10 minutes and 3 and 24 h. After specified times samples were analyzed using LC-MS. The compounds J1A, J1B, J7 and the active compound butenyl spinosyn were quantified. It is seen that the three compounds are converted to the active form preferably in alkaline conditions."}, "[3]": {"test_system": "larvae of Ostrinia nubilialis (development stage L1)", "experiment": "Insecticide efficacy, corn leaf dip, Henderson-Tilton method", "format": "in vivo", "details": "for % efficacy (Henderson-Tilton): Ostrinia, foliar", "description": "Insecticide activities of the compounds of this invention were assessed in comparison with commercially available samples of spinosad (LGC (Dr. Ehrenstorfer); Product code: DRE-C16972830) and spinetoram (LGC (Dr. Ehrenstorfer); Product code: DRE-C16972770). Solutions of spinosyn compounds were prepared by adding 0.05% Tween 80, lowering pH to 5.95 and sonicating. Two concentrations of each compound were used, 0.1 μg/ml and 0.3 μg/mL, with each condition tested in four parallels.\nFreshly collected corn leaves were dipped into the prepared solutions. After dipping leaves were left to dry at room temperature for 1 hour. Each dry leaf was then infested with 4 larvae of Ostrinia nubilialis (development stage L1), and the experimental device was incubated at 21° C.-23° C. for 24 h in order to optimize insect development. At three timings post infestation (1 day, 3 days and 6 days), the insecticide efficacy is evaluated from the number of living larvae using the Henderson-Tilton method. Untreated control was integrated for normalization and validation of larvae health."}, "[4]": {"details": "single oral dose 0.078 nmol/bee, 24 h after application"}, "[5]": {"details": "single oral dose 0.078 nmol/bee, 48 h after application"}, "[6]": {"details": "single oral dose 0.155 nmol/bee, 24 h after application"}, "[7]": {"details": "single oral dose 0.155 nmol/bee, 48 h after application"}}, "note": "Like-named read-outs stand apart in the source and are kept apart here."}
{"smiles": "CC/C=C/[C@H]1CCC[C@H](OC2CCC(N(C)C)C(C)O2)[C@@H](C)C(=O)C2=C[C@@H]3[C@@H](C=C[C@@H]4C[C@@H](OC5OC(C)C(OC)C(OC)C5OC)C[C@@H]34)[C@@H]2CC(=O)O1", "note": "(stereo partly drawn) [butenyl spinosyn, Butenyl spinosyn α1, reference compound]", "values": [{"measurement": "solubility kinetic at 24 h", "setting": "Kinetic solubility assay; K.S. 5.4 buffer, read-out: Kinetic Solubility pH = 5.4", "value": 183.17, "unit": "µM"}, {"measurement": "solubility kinetic at 24 h", "setting": "Kinetic solubility assay; K.S. 7.4 buffer, read-out: Kinetic Solubility pH = 7.4", "value": 3.52, "unit": "µM"}, {"measurement": "toxicity to honey bees compared to corresponding derivatives (in words)", "setting": "[1]; acute oral toxicity test", "value": "higher toxicity to honey bees"}, {"measurement": "% of surviving honey bees", "setting": "[1]; [4]", "value": 73, "unit": "%"}, {"measurement": "% of surviving honey bees", "setting": "[1]; [5]", "value": 53, "unit": "%"}, {"measurement": "% of surviving honey bees", "setting": "[1]; [6]", "value": 42, "unit": "%"}, {"measurement": "% of surviving honey bees", "setting": "[1]; [7]", "value": 18, "unit": "%"}]}
{"smiles": "CC/C=C/[C@H]1CCC[C@H](OC2CCC([N+](C)(C)COC(=O)OC(C)C)C(C)O2)[C@@H](C)C(=O)C2=C[C@@H]3[C@@H](C=C[C@@H]4C[C@@H](OC5OC(C)C(OC)C(OC)C5OC)C[C@@H]34)[C@@H]2CC(=O)O1", "note": "(some centres unmarked) [Compound J7]", "values": [{"measurement": "BuSPN Area % (active butenyl spinosyn released)", "setting": "[2]; buffer pH 4, 0.16 h", "value": 0.0, "unit": "%"}, {"measurement": "Compound (J1A/J1B/J7) Area % remaining", "setting": "[2]; buffer pH 4, 0.16 h", "value": 19.2, "unit": "%"}, {"measurement": "BuSPN Area % (active butenyl spinosyn released)", "setting": "[2]; buffer pH 4, 3 h", "value": 0.0, "unit": "%"}, {"measurement": "Compound (J1A/J1B/J7) Area % remaining", "setting": "[2]; buffer pH 4, 3 h", "value": 4.1, "unit": "%"}, {"measurement": "BuSPN Area % (active butenyl spinosyn released)", "setting": "[2]; buffer pH 4, 24 h", "value": 0.0, "unit": "%"}, {"measurement": "Compound (J1A/J1B/J7) Area % remaining", "setting": "[2]; buffer pH 4, 24 h", "value": 3.8, "unit": "%"}, {"measurement": "BuSPN Area % (active butenyl spinosyn released)", "setting": "[2]; buffer pH 5, 0.16 h", "value": 0.2, "unit": "%"}, {"measurement": "Compound (J1A/J1B/J7) Area % remaining", "setting": "[2]; buffer pH 5, 0.16 h", "value": 99.2, "unit": "%"}, {"measurement": "BuSPN Area % (active butenyl spinosyn released)", "setting": "[2]; buffer pH 5, 3 h", "value": 0.3, "unit": "%"}, {"measurement": "Compound (J1A/J1B/J7) Area % remaining", "setting": "[2]; buffer pH 5, 3 h", "value": 99.7, "unit": "%"}, {"measurement": "BuSPN Area % (active butenyl spinosyn released)", "setting": "[2]; buffer pH 5, 24 h", "value": 0.5, "unit": "%"}, {"measurement": "Compound (J1A/J1B/J7) Area % remaining", "setting": "[2]; buffer pH 5, 24 h", "value": 99.2, "unit": "%"}, {"measurement": "BuSPN Area % (active butenyl spinosyn released)", "setting": "[2]; buffer pH 9, 0.16 h", "value": 44.4, "unit": "%"}, {"measurement": "Compound (J1A/J1B/J7) Area % remaining", "setting": "[2]; buffer pH 9, 0.16 h", "value": 54.2, "unit": "%"}, {"measurement": "BuSPN Area % (active butenyl spinosyn released)", "setting": "[2]; buffer pH 9, 3 h", "value": 90.8, "unit": "%"}, {"measurement": "Compound (J1A/J1B/J7) Area % remaining", "setting": "[2]; buffer pH 9, 3 h", "value": 7.6, "unit": "%"}, {"measurement": "BuSPN Area % (active butenyl spinosyn released)", "setting": "[2]; buffer pH 9, 24 h", "value": 93.8, "unit": "%"}, {"measurement": "Compound (J1A/J1B/J7) Area % remaining", "setting": "[2]; buffer pH 9, 24 h", "value": 0.6, "unit": "%"}, {"measurement": "BuSPN Area % (active butenyl spinosyn released)", "setting": "[2]; buffer pH 11, 0.16 h", "value": 93.1, "unit": "%"}, {"measurement": "Compound (J1A/J1B/J7) Area % remaining", "setting": "[2]; buffer pH 11, 0.16 h", "value": 6.7, "unit": "%"}, {"measurement": "BuSPN Area % (active butenyl spinosyn released)", "setting": "[2]; buffer pH 11, 3 h", "value": 99.8, "unit": "%"}, {"measurement": "Compound (J1A/J1B/J7) Area % remaining", "setting": "[2]; buffer pH 11, 3 h", "value": 0.0, "unit": "%"}, {"measurement": "BuSPN Area % (active butenyl spinosyn released)", "setting": "[2]; buffer pH 11, 24 h", "value": 99.4, "unit": "%"}, {"measurement": "Compound (J1A/J1B/J7) Area % remaining", "setting": "[2]; buffer pH 11, 24 h", "value": 0.0, "unit": "%"}, {"measurement": "insecticidal activity on Ostrinia nubilialis larvae (in words)", "setting": "[3]; 0.1 and 0.3 μg/mL, leaf dip", "value": "extremely potent insecticidal activity"}, {"measurement": "% efficacy (Henderson-Tilton)", "setting": "[3]; 24 h, read-out: % Efficacy, dose 0.1 μg a.i./ml, 1 day post infestation", "value": 31, "unit": "%"}, {"measurement": "% efficacy (Henderson-Tilton)", "setting": "[3]; 24 h, read-out: % Efficacy, dose 0.3 μg a.i./ml, 1 day post infestation", "value": 44, "unit": "%"}, {"measurement": "% efficacy (Henderson-Tilton)", "setting": "[3]; 72 h, read-out: % Efficacy, dose 0.1 μg a.i./ml, 3 days post infestation", "value": 73, "unit": "%"}, {"measurement": "% efficacy (Henderson-Tilton)", "setting": "[3]; 72 h, read-out: % Efficacy, dose 0.3 μg a.i./ml, 3 days post infestation", "value": 91, "unit": "%"}, {"measurement": "% efficacy (Henderson-Tilton)", "setting": "[3]; 144 h, read-out: % Efficacy, dose 0.1 μg a.i./ml, 6 days post infestation", "value": 91, "unit": "%"}, {"measurement": "% efficacy (Henderson-Tilton)", "setting": "[3]; 144 h, read-out: % Efficacy, dose 0.3 μg a.i./ml, 6 days post infestation", "value": 100, "unit": "%"}, {"measurement": "solubility kinetic at 24 h", "setting": "Kinetic solubility assay; 25 °C, pH 5.4, aqueous buffer, kinetic from dmso stock, K.S. 5.4 buffer, read-out: Kinetic Solubility pH = 5.4", "value": 192, "unit": "µM"}, {"measurement": "solubility kinetic at 24 h", "setting": "Kinetic solubility assay; 25 °C, pH 7.4, aqueous buffer, kinetic from dmso stock, K.S. 7.4 buffer, read-out: Kinetic Solubility pH = 7.4", "value": 145, "unit": "µM"}, {"measurement": "% of surviving honey bees", "setting": "[1]; [4]", "value": 96, "unit": "%"}, {"measurement": "% of surviving honey bees", "setting": "[1]; [5]", "value": 94, "unit": "%"}, {"measurement": "% of surviving honey bees", "setting": "[1]; [6]", "value": 85, "unit": "%"}, {"measurement": "% of surviving honey bees", "setting": "[1]; [7]", "value": 63, "unit": "%"}]}
